From patent publication US10858365B2, “Triazolo-pyrimidine compounds and uses thereof” (Dizal (Jiangsu) Pharmaceutical Co., Ltd., priority 2018, dated 2020)

Experiments:
[1] = target: hA2b (Homo sapiens (Human), UniProt P29275); experiment: cAMP inhibition assay in hA2b/CHO cells; type: cell-based; conditions: adenosine stimulation, read-out: cAMP & FLIPR IC50 (nM) hA2b
Experimental: (§1) hA2a/CHO, hA2b/CHO and mA2a/CHO (Genscript) were plated at 5×10^3 cells/well into 384-well polystyrene plates at the day of experiment. Compounds were pre-incubated with cells for 30 min at 37° C., 5% CO2. Then […] adenosine was added to the cells and incubated for 30 min at 37° C., 5% CO2. Detection reagent (CISBIO) was added and the plates were incubated for 60 min at room temperature. The signal was captured by Envision.

[2] = target: T1, hA2a (Homo sapiens (Human), UniProt P29274); experiment: cAMP inhibition assay in hA2a/CHO cells; type: cell-based; conditions: adenosine stimulation, read-out: cAMP & FLIPR IC50 (nM) hA2a
T1 sequence (P29274 whole entry): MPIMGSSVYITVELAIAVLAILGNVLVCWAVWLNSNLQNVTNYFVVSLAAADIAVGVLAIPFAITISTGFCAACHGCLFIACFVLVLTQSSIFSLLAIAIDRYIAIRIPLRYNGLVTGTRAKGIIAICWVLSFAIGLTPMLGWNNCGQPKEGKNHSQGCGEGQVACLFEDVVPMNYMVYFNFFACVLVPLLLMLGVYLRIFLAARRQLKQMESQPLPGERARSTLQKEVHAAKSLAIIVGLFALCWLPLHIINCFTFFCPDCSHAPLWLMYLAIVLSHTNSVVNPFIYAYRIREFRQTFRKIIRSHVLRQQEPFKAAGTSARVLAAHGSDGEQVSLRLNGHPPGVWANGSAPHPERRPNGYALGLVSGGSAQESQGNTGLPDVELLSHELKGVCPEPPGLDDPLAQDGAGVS
Summary of the method: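 CHO cells expressing human A2a, human A2b or mouse A2a, 5×10^3 cells/well, pre-incubated with compound 30 min at 37 °C, then stimulated with […] adenosine 30 min at 37 °C. cAMP read after 60 min room-temperature incubation with detection reagent.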

[3] = target: mA2a (Mus musculus (Mouse), UniProt Q60613); experiment: cAMP inhibition assay in mA2a/CHO cells; type: cell-based; conditions: adenosine stimulation, read-out: cAMP & FLIPR IC50 (nM) mA2a
mA2a, sequence (Q60613 whole entry): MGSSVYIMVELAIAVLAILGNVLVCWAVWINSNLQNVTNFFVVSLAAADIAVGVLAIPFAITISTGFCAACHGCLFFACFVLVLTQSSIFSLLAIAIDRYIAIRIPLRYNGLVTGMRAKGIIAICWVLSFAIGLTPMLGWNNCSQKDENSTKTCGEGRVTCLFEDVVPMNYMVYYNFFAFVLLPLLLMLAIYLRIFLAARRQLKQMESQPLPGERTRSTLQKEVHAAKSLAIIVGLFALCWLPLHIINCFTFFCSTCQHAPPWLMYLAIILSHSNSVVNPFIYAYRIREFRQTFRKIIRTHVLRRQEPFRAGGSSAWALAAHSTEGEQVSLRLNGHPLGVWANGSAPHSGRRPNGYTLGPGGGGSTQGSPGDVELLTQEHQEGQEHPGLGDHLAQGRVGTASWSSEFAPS
Experimental: as §1

[4] = target: T2, hA1 (Homo sapiens (Human), UniProt P30542); experiment: FLIPR inhibition assay in hADORA1/CHO (hA1 expressing) cells; type: cell-based; conditions: hADORA1/CHO cells, FLIPR calcium, adenosine stimulation; read-out: cAMP & FLIPR IC50 (nM) hA1
T2 sequence (P30542 whole entry): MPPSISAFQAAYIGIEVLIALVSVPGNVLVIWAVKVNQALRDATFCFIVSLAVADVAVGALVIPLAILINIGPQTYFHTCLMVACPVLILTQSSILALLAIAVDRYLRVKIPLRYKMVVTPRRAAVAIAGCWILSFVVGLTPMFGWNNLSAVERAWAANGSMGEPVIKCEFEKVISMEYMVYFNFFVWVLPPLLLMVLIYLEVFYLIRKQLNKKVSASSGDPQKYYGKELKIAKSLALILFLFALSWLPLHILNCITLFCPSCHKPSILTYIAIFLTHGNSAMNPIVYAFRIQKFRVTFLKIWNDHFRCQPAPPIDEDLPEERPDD
Summary of the method: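 CHO cells expressing human A1 were plated at 1×10^4 cells/well the day before, then loaded with FLIPR Calcium 5 dye for 60 min at 37 °C, 5% CO2. Compounds were added at several concentrations for 400 s before stimulation with […] adenosine. The calcium signal was recorded by FLIPR.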

[5] = target: hA3 (Homo sapiens (Human), UniProt P0DMS8); experiment: cAMP & FLIPR inhibition, hA3 over-expressing cell line; type: cell-based
hA3, sequence (P0DMS8 whole entry): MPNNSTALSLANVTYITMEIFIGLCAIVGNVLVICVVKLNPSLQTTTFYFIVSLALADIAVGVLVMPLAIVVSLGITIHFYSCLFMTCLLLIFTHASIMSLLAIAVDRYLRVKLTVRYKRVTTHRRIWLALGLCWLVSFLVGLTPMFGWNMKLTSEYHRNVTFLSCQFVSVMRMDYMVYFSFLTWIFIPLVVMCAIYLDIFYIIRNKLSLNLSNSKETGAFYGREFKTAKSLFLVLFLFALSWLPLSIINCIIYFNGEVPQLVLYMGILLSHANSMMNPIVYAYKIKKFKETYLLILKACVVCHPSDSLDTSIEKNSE
From the text: FLIPR™ and cAMP inhibition activities of exemplary compounds in different adenosine receptor over-expressing cell lines are shown in Table 4 below.

[6] = target: T2, hA1; experiment: Radioligand binding to hA1 membrane ([3H]-DPCPX); conditions: 50 min at 25° C., read-out: Binding Affinity (IC50 nM) hA1
Experimental: (§2) Binding affinity and specificities of the compounds against different subtype of human adenosine receptors (hA1, hA2A, hA2B and hA3) were characterized with cell membrane chromatography binding analysis.
(§3) The compounds at different concentrations were incubate with hA1 membrane (from PerkinElmer) and [^3H]-8-Cyclopentyl-1,3-dipropylxanthine (DPCPX) for 50 min at 25° C., meanwhile 100 μL 0.5% PEI solution was added into […]-96 GF/B filter plate for 60 min at 4° C., then […]-96 GF/B filter plate was washed twice with 50 ml wash buffer, the membrane mix was transferred into […]-96 GF/B filter plate, and the filter plate was washed 4 times before incubated at 55° C. for 10 min. At last, […] ULTIMA GOLD was added into each well, and CPM was read by TopCount.
(§4) The empty boxes in the tables below indicate data not available.

[7] = target: T1, hA2a; experiment: Radioligand binding to hA2a membrane ([3H]-CGS21680); conditions: [3H]-CGS21680, 90 min at 25° C., read-out: Binding Affinity (IC50 nM) hA2a
Experimental: as §2
as §3, with “with hA2a” for “with hA1”, “and [^3H]-CGS21680” for “and [^3H]-8-Cyclopentyl-1,3-dipropylxanthine (DPCPX)”, “for 90” for “for 50”
as §4

hA2b, sequence (P29275 whole entry): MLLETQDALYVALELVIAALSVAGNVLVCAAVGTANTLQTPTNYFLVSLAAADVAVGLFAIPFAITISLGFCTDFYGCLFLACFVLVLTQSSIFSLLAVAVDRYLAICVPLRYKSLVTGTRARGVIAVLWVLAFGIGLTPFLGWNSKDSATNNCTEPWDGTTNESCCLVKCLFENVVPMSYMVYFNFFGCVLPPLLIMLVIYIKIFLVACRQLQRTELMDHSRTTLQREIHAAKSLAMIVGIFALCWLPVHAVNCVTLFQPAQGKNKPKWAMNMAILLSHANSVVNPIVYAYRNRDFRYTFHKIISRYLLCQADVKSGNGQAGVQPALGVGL

| Compound | IC50 [1] [nM] | IC50 [2] [nM] | IC50 [3] [nM] | IC50 [4] [nM] | IC50 [5] [nM] | IC50 [6] [nM] | IC50 [7] [nM] |
| --- | --- | --- | --- | --- | --- | --- | --- |
| Cc1cc(-c2c(-c3ccc(F)cc3)nc(N)n3nc(Cc4ncccc4F)nc23)ccn1 [Example 2, 7-(4-fluorophenyl)-2-((3-fluoropyridin-2-yl)methyl)-8-(2-methylpyridin-4-yl)-[l,2,4]triazolo[l,5-c]pyrmidin-5-amine] | 73 | 59 | 59 | 23 | > 10000 |  |  |
| Cc1cc(-c2c(-c3ccc(F)cc3)nc(N)n3nc(Cc4cccc(C#N)n4)nc23)ccn1 [Example 19, 6-((5-amino-7-(4-fluorophenyl)-8-(2-methylpyridin-4-yl)-[1,2,4]triazolo[1,5-f]pyrimidin-2-yl)methyl)picolinonitrile] | 303 | 102 | 88 | 23 | > 10000 |  |  |
| Cn1cc(-c2c(-c3ncco3)nc(N)n3nc(Cc4ncccc4F)nc23)ccc1=O [Example 21, 5-(5-amino-2-((3-fluoropyridin-2-yl)methyl)-7-(oxazol-2-yl)-[1,2,4]triazolo[1,5-c]pyrimidin-8-yl)-1-methylpyridin-2(1H)-one] | 270 | 36 | 41 | 113 | > 10000 | 43 | 20 |
| Cc1cc(-c2c(-c3ccc(F)cc3)nc(N)n3nc(Cc4ncccc4F)nc23)cc(Cl)n1 [Example 18, 8-(2-chloro-6-methylpyridin-4-yl)-7-(4-fluorophenyl)-2-((3-fluoropyridin-2-yl)methyl)-[l,2,4]triazolo[1,5-c]pyrimidin-5-amine] | 511 | 1.2 | 9.6 | 49 | > 10000 |  |  |
| Cn1cc(-c2c(-c3ccc(F)cc3)nc(N)n3nc(Cc4c(F)cccc4F)nc23)ccc1=O [Example 9, 5-(5-amino-2-(2,6-difluorobenzyl)-7-(4-fluorophenyl)-[1,2,4]triazolo[1,5-c]pyrimidin-8-yl)-l-methylpyridin-2(1H)-one] | 56 | 0.6 | 0.8 | 20 | > 10000 | 0.2 | 2.1 |
| Cc1cc(-c2c(-c3ccc(F)cc3)nc(N)n3nc(Cc4cccc(Cl)c4)nc23)ccn1 [Example 8, 2-[(3-chlorophenyl)methyl]-7-(4-fluorophenyl)-8-(2-methylpyridin-4-yl)-[1,2,4]triazolo[1,5-c]pyrimidin-5-amine] | 2950 | 59 | 98 | 162 | > 10000 |  |  |
| Cc1cc(-c2c(-c3ccc(F)cc3)nc(N)n3nc(C(C)c4c(F)cccc4F)nc23)ccn1 (stereo not drawn) [Example 12, 2-[1-(2,6-difluorophenyl)ethyl]-7-(4-fluorophenyl)-8-(2-methylpyridin-4-yl)-[1,2,4]triazolo[1,5-c]pyrimidin-5-amine] | 5000 | 46 | 316 | 214 | > 10000 |  |  |
| Nc1nc(-c2ccc(F)cc2)c(-c2ccnnc2)c2nc(Cc3c(F)cccc3F)nn12 [Example 6, 2-(2,6-difluorobenzyl)-7-(4-fluorophenyl)-8-(pyridazin-4-yl)-[1,2,4]triazolo[1,5-c]pyrimidin-5-amine] | 17 | 63 | 182 | 21 | > 10000 |  |  |
| Cc1cc(-c2c(-c3ccc(F)cc3)nc(N)n3nc(Cc4ncccc4F)nc23)cc(C)n1 [Example 14] | 2240 | 6.9 | 18 | 97 | > 10000 |  |  |
| Cc1cc(-c2c(-c3ccc(F)cc3)nc(N)n3nc(Cc4cscn4)nc23)ccn1 [Example 7, 7-(4-fluorophenyl)-8-(2-methylpyridin-4-yl)-2-[(1,3-thiazol-4-yl)methyl]-[1,2,4]triazolo[1,5-c]pyrimidin-5-amine] | 1600 | 102 | 209 | 23 | > 10000 |  |  |
| Cc1cc(-c2c(-c3ccc(F)cc3)nc(N)n3nc(Cc4c(F)cccc4F)nc23)c(C)cn1 [Example 13, 2-[(2,6-difluorophenyl)methyl]-8-(2,5-dimethylpyridin-4-yl)-7-(4-fluorophenyl)-[1,2,4]triazolo[1,5-c]pyrimidin-5-amine] | 81 | 11 | 56 | 153 | > 10000 |  |  |
| Cc1c(-c2c(-c3ccc(F)cc3)nc(N)n3nc(Cc4ncccc4F)nc23)ccc(=O)n1C [Example 66, 5-(5-amino-7-(4-fluorophenyl)-2-((3-fluoropyridin-2-yl)methyl)-[1,2,4]triazolo[1,5-c]pyrimidin-8-yl)-1,6-dimethylpyridin-2(1H)-one] | 109 | 31 | 346 | 69 |  | 46 | 7.2 |
| Nc1nc(-c2ccc(F)cc2)c(-c2ccnc(Cl)c2)c2nc(Cc3ncccc3F)nn12 [Example 3, 8-(2-chloropyridin-4-yl)-7-(4-fluorophenyl)-2-((3-fluoropyridin-2-yl)methyl)-[1,2,4]triazolo[1,5-c]pyrmidin-5-amine] | 65 | 56 | 70 | 42 | > 10000 |  |  |
| Nc1cccc(Cc2nc3c(-c4ccc5nccn5c4)c(-c4ccc(F)cc4)nc(N)n3n2)n1 [Example 37, 2-((6-aminopyridin-2-yl)methyl)-7-(4-fluorophenyl)-8-(imidazo[1,2-a]pyridin-6-yl)-[1,2,4]triazolo[1,5-c]pyrimidin-5-amine] | 12 | 1.8 | 7.3 | 12 |  | 4 | 6.3 |
| Cc1cc(-c2c(-c3ccc(F)cc3)nc(N)n3nc(Cc4nccs4)nc23)ccn1 [Example 11, 7-(4-fluorophenyl)-8-(2-methylpyridin-4-yl)-2-(thiazol-2-ylmethyl)-[1,2,4]triazolo[1,5-c]pyrimidin-5-amine] | 219 | 34 | 78 | 9.7 | > 10000 |  |  |
| Cn1cc(-c2c(-c3cccc(Cl)c3)nc(N)n3nc(Cc4ncccc4F)nc23)ccc1=O [Example 70, 5-(5-amino-7-(3-chlorophenyl)-2-((3-fluoropyridin-2-yl)methyl)-[1,2,4]triazolo[1,5-c]pyrimidin-8-yl)-l-methylpyridin-2(lH)-one] | 68 | 5.5 | 13 | 14 |  | 0.8 | 4.1 |
